Experimental findings from patent US20120071496A1, “Aminopyrimidinamides As Pest Control Agents” (Bayer CropScience AG, priority 2009, published 2012) are described below.

SMILES strings stand for the structures.

The test system of data set [1] is green peach aphid (Myzus persicae). Kind of data set: whole plant or invertebrate. As to conditions: in Brassica rapa, 144 h, read-out: mortality in % (aphids killed). As for the experimental part:
Myzus Persicae—Test; (Spray Application) 2
Solvent: 78.0 parts by weight acetone • 1.5 parts by weight dimethylformamide Emulsifier: 0.5 parts by weight alkylarylpolyglcolether
After 6 days mortality in % is determined.

A further data set in a line: logP (HCOOH). It counts as physicochemical.
The subject of data set [2] is Spodoptera litura third instar larvae. The data set is described as follows: Test against tobacco cutworm (Spodoptera litura) larvae. It counts as in vivo. As to conditions: active compound concentration 100 ppm; immersed sweet potato leaves; after 7 days.
Procedure: Unless not mentioned otherwise, the test solutions were prepared as follows:
Containing as solvent: Dimethylformamide, 3 parts by weight; and as emulsifier: Polyoxyethylene alkyl phenyl ether, 1 part by weight
Test Against Tobacco Cutworm (Spodoptera litura) Larvae
Leaves of sweet potato were immersed in the test solution at the appropriate concentration, and the leaves were dried in air. The leaves were then placed in a petri dish having a diameter of 9 cm, and ten Spodoptera litura at third instar larvae were released therein. The petri dishes were placed in a temperature-controlled chamber at 25° C. After 2 days and 4 days more sweet potato leaves were added. After 7 days, the number of dead larvae was counted to calculate the insecticidal activity. An insecticidal activity of 100% means that all larvae were killed, whereas an insecticidal activity of 0% means that no larva was killed.
In data set [3] the test system is mustard beetle larvae (Phaedon cochleariae). As to conditions: application rate 500 g/ha; sprayed Chinese cabbage leaf-disks; after 7 days. As for the experimental part:
Phaedon Cochleariae —Test; (Spray Application)
Chinese cabbage (Brassica pekinesis) leaf-disks are sprayed with a preparation of the active ingredient of the desired concentration. Once dry, the leaf disks are infested with mustard beetle larvae (Phaedon cochleariae).
After 7 days mortality in % is determined.

As to `CCc1ncccc1C(=O)Nc1c(Cl)ncnc1NC1CC1` [3-1, N-(4-Chloro-6-cyclopropylaminopyrimidin-5-yl)-2-ethylnicotinamide], in data set [1], the mortality (in general, the percentage killed) at 500 g/ha is at least 80%. Also, the chromatographic logP (commonly a lipophilicity value derived from retention on a column) in the data set “logP (HCOOH)” (HCOOH (formic acid), Table 4) was determined as 0.79.

`CCc1ncccc1C(=O)Nc1c(NC2CC2)ncnc1-c1ccc(Cn2nc(C(F)(F)F)nc2C(F)(F)F)cc1` [1-258]: in “logP (HCOOH)” (Table 2), the “logP (HCOOH)” value was determined as 2.07. In data set [2], this compound registered an insecticidal activity of 100%.

As to `CCc1ccccc1C(=O)Nc1c(NC2CC2)nc(C)nc1-c1ccccc1` [1-280], the “mortality in % (beetle larvae killed)” value in data set [3] is recorded as 1-280%.
